Experimental data from patent US7292944B2, “Establishment of biological cut-off values for predicting resistance to therapy” (priority 2000, dated 2007).

System: HIV
Test: Antivirogram phenotypic drug susceptibility of untreated patient samples relative to laboratory wild type standard virus
Type: cell-based
Details: for effect of the change in cut-off value on the decision concerning resistance of the samples: new versus old cut-off value (FIG. 4, FIG. 5)
Excerpt: In one embodiment, the biological cut-off values may be used in concert with direct phenotype assays, for example, Antivirogram™ (Virco, Inc.; WO 97/27480, U.S. Pat. No. 6,221,578 incorporated herein by reference). This assay is a phenotypic resistance assay that measures, in controlled laboratory conditions, the level of resistance of the HIV derived from an individual patient to each of the anti-HIV therapies currently available. The resistant ‘behavior’ of the virus may be the combined result of the effects of many different mutations and the complex interactions between them, including genetic changes that have not even been identified yet. In other words, it is a direct measure of resistance.
The test provides a quantitative measure of viral resistance to all the available drugs. This is expressed in terms of the IC50. This is then compared to the IC50 for fully sensitive, non-mutated ‘wild-type’ virus. The resistance of the sampled virus to each therapy is then expressed in terms of a fold-change in IC50 compared to wild type. The report enables physicians to identify the therapy(s) that are no longer active and helps in the selection of the optimal combination of drugs for the individual patient.
Drug susceptibility of approximately 1000 geographically diverse untreated patient samples was determined for all currently approved antiretrovirals using the Antivirogram™ assay. […] The fold change in sensitivity of the samples to a drug is also termed the fold resistance of the samples to the drug. The 2×SD value for each drug was used as the cut-off between sensitive (within normal susceptibile range) and resistant (above normal susceptible range). […] FIG. 1 represents an example of such an analysis for a single antiviral drug. These varied between 3-4.5 fold for the nucleosides, 6-10 fold for the NNRTIs and 2.5-4 fold for the PIs.

| Compound | effect of the change in cut-off value on the decision concerning resistance of the samples | biological cut-off value (2×SD of fold change in sensitivity / fold resistance) (approximately 1000 untreated patient samples, new cut-off between sensitive and resistant, old cut-off was 4 fold) |
| --- | --- | --- |
| Cc1cn([C@H]2C=C[C@@H](CO)O2)c(=O)[nH]c1=O [d4T] | doubling of the number of resistant sample | – |
| CC(C)Nc1cccnc1N1CCN(C(=O)c2cc3cc(NS(C)(=O)=O)ccc3[nH]2)CC1 [delavirdine] | did not actually affect the decision of many samples | 10 fold |
